Measured values as given in article PMC7842235 (Journal of proteome research, 2020).

Biological target: T1, Tryp-N (Thermochaetoides thermophila, UniProt G0SEK4)
T1 sequence (G0SEK4 68-292): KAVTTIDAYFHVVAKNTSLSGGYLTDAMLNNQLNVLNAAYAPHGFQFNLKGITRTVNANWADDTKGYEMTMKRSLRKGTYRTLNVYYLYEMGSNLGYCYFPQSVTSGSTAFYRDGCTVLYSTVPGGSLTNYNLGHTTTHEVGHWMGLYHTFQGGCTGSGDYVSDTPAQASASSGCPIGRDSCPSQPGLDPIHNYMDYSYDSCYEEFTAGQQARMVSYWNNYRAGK
Assay: protease activity assay, probably FITC-labeled casein
Type: biochemical

IC50: ~500 µM
Structure (SMILES): N=C(N)c1ccccc1 [benzamidine]
